Entries after “also recorded” stand apart in the source; their conditions may differ. Where two headings read alike, the source gives them in different places.
How the values were obtained:
[1] = Stability of compound 1 in rat plasma under different storage conditions; assay type: in vitro ADME
Experimental: Stability was assessed under the four conditions (storage at room temperature for 12 h, […] for 24 h, refrigerator storage at −20 °C for 10 days, and freeze-thawing at −80 °C to 25 °C for 3 cycles) using the QC working solution (2.5, 800 ng/mL), and six preparations were made in parallel for each concentration. The stability of compound 1 in rat plasma was evaluated by calculating the peak area ratio (compound 1/IS) in plasma sample.

[2] = test system: PYGB; set-up: method as in PMID 36234871, PMID 36838691, PMID 36108587; details: previous studies; read-out: IC50 of PYGB inhibition; cited from earlier work
[3] = Brain tissue distribution after intravenous administration; assay type: in vivo, SD rats; details: rat; for brain tissue concentration: after injection
Experimental: Brain tissue homogenate samples for analysis were prepared by adding 9 volumes of homogenate solution (MeOH/15 mMPBS (1: 2, v/v)) to one volume of brain homogenate and diluting it 10-fold. Firstly, an aliquot of 40 μL of the brain homogenate sample to be tested (diluted sample), calibration standards, QC and diluted QC, a zero sample (with internal standard) and a blank sample (without internal standard) were added to the 96-well plate. Then, each sample (except blank samples) was quenched with 400 μL of IS1 (blank samples were quenched with 400 μL of acetonitrile), and the mixture was vortexed at 800 rpm for 10 min, followed by centrifugation at 3220× g at 4 °C for 15 min. Finally, a 50 μL aliquot of the supernatant was transferred to another clean 96-well plate and centrifuged at 3220× g for 15 min at 4 °C, then injected directly into the sample for UHPLC–MS/MS analysis.
(§1) Liquid chromatography conditions. UHPLC–MS/MS analyses were performed on an Agilent 1260 ultra-high performance liquid chromatograph (Agilent Technologies Co., Ltd., Santa Clara, CA, USA) and a QTRAP 5500 triple quadrupole tandem mass spectrometer (AB Sciex Pte. Ltd., Framingham, MA, USA). An ACQUITY UPLC BEH C18 column (2.1 × 50 mm, 1.7 µm) was used at […] with a flow rate of 0.3 mL/min and an injection volume of 2 µL. The analysis time was 5 min using an isocratic elution procedure of methanol and water (4:1, v/v).
In the preliminary brain tissue distribution study, 18 healthy male SD rats were injected with 3.2 mg/kg of compound 1 intravenously into the tail, and the animals were euthanized by CO2 inhalation at 0.25, 2 and 8 h after the administration of compound 1, respectively. Blood and brain tissue were then collected separately from each animal. Brain tissue was homogenized on wet ice using homogenizing buffer (MeOH/15 mM PBS = 1/2) at a ratio of 1:9 (1 g tissue to 9 mL buffer). The tissue homogenate was divided into two parts, 0.8 mL was used for analysis and the rest was discarded.
(§2) The data was processed using Origin 2021 to plot the drug concentration–time curve in plasma, and DAS 2.0 software was used to calculate the pharmacokinetic parameters by the […] statistical moment method, and the results of the experiments were expressed as mean ± standard deviation. Differences between groups were analyzed using SPSS 20.0, with p < 0.05 indicating statistical significance.

[4] = Plasma pharmacokinetics after intravenous administration (UHPLC–MS/MS); assay type: in vivo, SD rats; details: rat plasma; for AUC(0-inf) / AUC(0-t) / Cmax / Vd / clearance / half-life: both sexes, SD
Experimental: 50 μL of the plasma to be tested was aspirated precisely and placed in a 1.5 mL centrifuge tube. Then 5 μL of internal standard working solution and 150 μL of methanol were added sequentially to the centrifuge tube, and the tube was vortexed for 60 s and centrifuged at 6147× g for 10 min. Finally, 100 μL of supernatant was taken and added to the injection vial for quantitative analysis by UHPLC–MS/MS.
as §1
In the plasma pharmacokinetic study, 30 healthy SD rats (half male and half female) were selected and randomly divided into 3 groups of 10 rats each. Three groups of SD rats were injected with a single dose of compound 1 (0.8 mg/kg, 1.6 mg/kg, 3.2 mg/kg) by tail vein, respectively. At 0.084, 0.25, 1, 2, 4, 6, 8, 12, 24 h after administration, 0.5 mL of blood was collected from the fundus venosus in heparin-anticoagulated tubes, and the plasma was separated by centrifugation at 6149× g for 10 min, and then placed in 1.5 mL Eppendorf tubes and stored in the refrigerator at −80 °C for measurement.
as §2

[5] = male, Sprague-Dawley (SD), brain tissue, 3.2 mg/kg iv
[6] = 3.2 mg/kg iv, 0.25 h, 3.2 mg/kg

## CCCC1(CCC)NC(=O)c2cc(NC(=O)c3cc4cc(Cl)ccc4[nH]3)ccc2O1 [compound 1, 5-chloro-N-(4-oxo-2,2-dipropyl-3,4-dihydro-2H-benzo[e][1,3]oxazin-6-yl)-1H-indole-2-carboxamide]
[1]; 2.5 ng/mL, auto-sampler (24 h), 4 °C
  Stability, RE: 13.81%
[1]; 2.5 ng/mL, room temperature (12 h)
  Stability, RE: 0.50%
[1]; 2.5 ng/mL, storage at −20 °C (10 days)
  Stability, RE: 12.30%
[1]; 2.5 ng/mL, thaw and freeze (from −80 °C to 25 °C), 3 cycles
  Stability, RE: 12.40%
[1]; 800 ng/mL, auto-sampler (24 h), 4 °C
  Stability, RE: −3.20%
[1]; 800 ng/mL, room temperature (12 h)
  Stability, RE: 1.03%
[1]; 800 ng/mL, storage at −20 °C (10 days)
  Stability, RE: −0.65%
[1]; 800 ng/mL, thaw and freeze (from −80 °C to 25 °C), 3 cycles
  Stability, RE: −3.64%
[2]
  IC50: 0.0903 µM
[3]; brain tissue, 3.2 mg/kg iv
  AUC0–∞: 668 ng·h/g
[3]; male, SD, brain, iv, 3.2 mg/kg, 3.2 mg/kg iv, 0.25 h, read-out: CBrain (concentration in brain tissue)
  concentration at 0.25 h: 440 ± 19.1 ng/g
[3]; male, SD, brain, iv, 3.2 mg/kg, 3.2 mg/kg iv, 2 h, read-out: CBrain (concentration in brain tissue)
  concentration at 2 h: 111 ± 23.9 ng/g
[3]; male, SD, brain, iv, 3.2 mg/kg, 3.2 mg/kg iv, 8 h, read-out: CBrain (concentration in brain tissue)
  concentration at 8 h: 4.17 ± 7.22 ng/g
[3]; male, SD, brain/plasma, iv, 3.2 mg/kg, 3.2 mg/kg iv, 0.25 h, read-out: CBrain/CPlasma ratio
  Kp at 0.25 h: 0.112 ± 0.0185
[3]; male, SD, brain/plasma, iv, 3.2 mg/kg, 3.2 mg/kg iv, 2 h, read-out: CBrain/CPlasma ratio
  Kp at 2 h: 0.112 ± 0.0292
[3]; male, SD, brain/plasma, iv, 3.2 mg/kg, 3.2 mg/kg iv, 8 h, read-out: CBrain/CPlasma ratio
  Kp at 8 h: 0.09 ± 0.148
[3]; male, SD, plasma, iv, 3.2 mg/kg, 3.2 mg/kg iv, 0.25 h, read-out: CPlasma (concentration in plasma)
  concentration at 0.25 h: 4020 ± 677 ng/g
[3]; male, SD, plasma, iv, 3.2 mg/kg, 3.2 mg/kg iv, 2 h, read-out: CPlasma (concentration in plasma)
  concentration at 2 h: 1020 ± 275 ng/g
[3]; male, SD, plasma, iv, 3.2 mg/kg, 3.2 mg/kg iv, 8 h, read-out: CPlasma (concentration in plasma)
  concentration at 8 h: 32.9 ± 14.5 ng/g
[3]; male, SD, plasma, 3.2 mg/kg iv
  Cmax: 4890 ng/g
  Tmax: 0 h
  half-life: 1.14 h
[3]; [5]
  Cmax: 440 ng/g
  MRT: 1.65 h
  Tmax: 0.25 h
  half-life: 1.18 h
[3]; male, Sprague-Dawley (SD), plasma, 3.2 mg/kg iv
  MRT: 1.47 h
[3]; plasma, 3.2 mg/kg iv
  AUC0–∞: 6659 ng·h/g
[3]; [6]
  CBrain (concentration in brain tissue): 440.0 ± 19.1 ng/g
  CBrain/CPlasma ratio: 0.11 ± 0.019
[3]; 3.2 mg/kg iv, 2 h, 3.2 mg/kg
  CBrain (concentration in brain tissue): 111.0 ± 23.9 ng/g
  CBrain/CPlasma ratio: 0.11 ± 0.029
[3]; 3.2 mg/kg iv, 8 h, 3.2 mg/kg
  CBrain (concentration in brain tissue): 4.2 ± 7.2 ng/g
[3]; 0.25 h (abstract)
  brain tissue concentration: 440 ± 19.1 ng/g
[3]; 2 h (abstract)
  brain tissue concentration: 111 ± 23.9 ng/g
[3]; iv
  crossing of the blood–brain barrier: able to cross the blood–brain barrier; also recorded: could quickly cross the blood–brain barrier
[4]; 0.8 mg/kg iv
  AUC(0-inf): 900 ± 441 ng·h/mL
  AUC(0-t): 895 ± 440 ng·h/mL
  Cmax: 1180 ± 361 ng/mL
  Vd: 6.43 ± 3.48 L/kg
  clearance: 16.7 mL/min/kg
  half-life: 4.56 ± 2.17 h
[4]; 1.6 mg/kg iv
  AUC(0-inf): 1610 ± 371 ng·h/mL
  AUC(0-t): 1600 ± 372 ng·h/mL
  Cmax: 2030 ± 289 ng/mL
  Vd: 7.51 ± 6.15 L/kg
  clearance: 17.3 mL/min/kg
  half-life: 4.8 ± 3.22 h
[4]; 3.2 mg/kg iv
  AUC(0-inf): 3630 ± 973 ng·h/mL
  AUC(0-t): 3630 ± 970 ng·h/mL
  Cmax: 3710 ± 683 ng/mL
  Vd: 4.14 ± 1.23 L/kg
  clearance: 15.7 mL/min/kg
  half-life: 3.08 ± 0.58 h
[4]; iv, dose range 0.8–3.2 mg/kg
  linearity of pharmacokinetics: linear pharmacokinetic characteristics; also recorded: linear pharmacokinetic profile
